# According to publication PMC9814900 (Communications Chemistry, 2022):
# Numbered stars: 1 amine (or outer) side, 2 acyl side, 3 side chain; on linkers, the order of the positions; unused ones are H or OH. Bridge positions count the residues as written; N and C are the ends. Peptide text beside a SMILES is read from it. C6F4(1,4-diyl) = Fc1c(F)c([*:2])c(F)c(F)c1[*:1]
# Target: T1, SUMO-25-109MDM2 (Homo sapiens, UniProt Q00987)
# T1 construct: the ^25-109MDM2 gene was purchased from Addgene; made in house; host or cells: E. coli Rosetta (DE3) pLysS
# Experiment: In-solution competition assay by biolayer interferometry (BLI)
# Format: binding
# Conditions: not given
row,Compound,Kd [nM]
1,"CC(C)C[C@H](NC(=O)[C@@H]1CSc2c(F)c(F)c(c(F)c2F)SC[C@H](NC(=O)[C@H](C)NC(=O)[C@H](Cc2ccccc2)NC(=O)[C@H](CO)NC(=O)[C@@H](N)[C@@H](C)O)C(=O)N[C@@H](Cc2ccc(O)cc2)C(=O)N[C@@H](Cc2c[nH]c3ccccc23)C(=O)N[C@@H](CC(N)=O)C(=O)N1)C(=O)N[C@@H](CO)C(=O)N1CCC[C@H]1C(N)=O [Peptide 13] (H-TSFACYWNCLSP-NH2; linker 5-9 via C6F4(1,4-diyl))",36 ± 8.5
2,CC(C)C[C@H](NC(=O)[C@H](C)NC(=O)[C@H](Cc1c[nH]c2ccccc12)NC(=O)[C@H](Cc1ccc(O)cc1)NC(=O)[C@H](CCC(=O)O)NC(=O)[C@H](C)NC(=O)[C@H](Cc1ccccc1)NC(=O)[C@H](CO)NC(=O)[C@@H](N)[C@@H](C)O)C(=O)N[C@@H](CC(C)C)C(=O)N[C@@H](CO)C(=O)N[C@@H](C)C(N)=O [Peptide 8] (H-TSFAEYWALLSA-NH2),0.7 ± 0.5

# Same assay, conditions: Figs 3-5; peptide pre-incubated 30 min with ~50 or ~100 nM SUMO-25-109MDM2 in PBS, 0.05% Tween-20, 1 mg/mL BSA; sensor loaded with Biotin-PEG4-p53(15-29); 30 °C; response after 2 min; read-out: KD, competition assay using BLI
row,Kd [nM],Compound
1,449 ± 57,"CC(C)C[C@H](NC(=O)[C@H](CC(N)=O)NC(=O)[C@H](Cc1c[nH]c2ccccc12)NC(=O)[C@@H]1CSc2c(F)c(F)c(c(F)c2F)SC[C@H](NC(=O)[C@@H](N)[C@@H](C)O)C(=O)N[C@@H](Cc2ccccc2)C(=O)N[C@@H](C)C(=O)N[C@@H](CCC(=O)O)C(=O)N1)C(=O)N[C@@H](CC(C)C)C(=O)N[C@@H](CO)C(=O)N1CCC[C@H]1C(N)=O [Peptide 10] (H-TCFAECWNLLSP-NH2; linker 2-6 via C6F4(1,4-diyl))"
2,1620 ± 263,"CC(C)C[C@H](NC(=O)[C@H](CC(N)=O)NC(=O)[C@@H]1CSc2c(F)c(F)c(c(F)c2F)SC[C@H](NC(=O)[C@H](CO)NC(=O)[C@@H](N)[C@@H](C)O)C(=O)N[C@@H](C)C(=O)N[C@@H](CCC(=O)O)C(=O)N[C@@H](Cc2ccc(O)cc2)C(=O)N1)C(=O)N[C@@H](CC(C)C)C(=O)N[C@@H](CO)C(=O)N1CCC[C@H]1C(N)=O [Peptide 11] (H-TSCAEYCNLLSP-NH2; linker 3-7 via C6F4(1,4-diyl))"
3,0.7 ± 0.5,"CC(C)C[C@@H]1NC(=O)[C@H](C)NC(=O)[C@@H](NC(=O)[C@H](Cc2c[nH]c3ccccc23)NC(=O)[C@H](Cc2ccc(O)cc2)NC(=O)[C@H](CCC(=O)O)NC(=O)[C@H](C)NC(=O)[C@H](Cc2ccccc2)NC(=O)[C@H](CO)NC(=O)[C@@H](N)[C@@H](C)O)CSc2c(F)c(F)c(c(F)c2F)SC[C@@H](C(N)=O)NC(=O)[C@H](CO)NC1=O [Peptide 40] (H-TSFAEYWCALSC-NH2; linker 8-12 via C6F4(1,4-diyl))"
4,1440 ± 390,CC(C)C[C@H](NC(=O)[C@H](CC(N)=O)NC(=O)[C@H](Cc1c[nH]c2ccccc12)NC(=O)[C@H](C)NC(=O)[C@H](CCC(=O)O)NC(=O)[C@H](C)NC(=O)[C@H](Cc1ccccc1)NC(=O)[C@H](CO)NC(=O)[C@@H](N)[C@@H](C)O)C(=O)N[C@@H](C)C(=O)N[C@@H](CO)C(=O)N1CCC[C@H]1C(N)=O [Peptide 6] (H-TSFAEAWNLASP-NH2)

# Same assay, conditions: supplementary binding validation; N=1; ~250 nM SUMO-25-109MDM2; read-out: KD, competition BLI assay
row,Kd [nM],Compound
1,925 ± 70,"CC(C)C[C@H](NC(=O)[C@H](CC(N)=O)NC(=O)[C@H](Cc1c[nH]c2ccccc12)NC(=O)[C@H](Cc1ccc(O)cc1)NC(=O)[C@@H]1CSc2c(F)c(F)c(c(F)c2F)SC[C@H](N)C(=O)N[C@@H](CO)C(=O)N[C@@H](Cc2ccccc2)C(=O)N[C@@H](C)C(=O)N1)C(=O)N[C@@H](CC(C)C)C(=O)N[C@@H](CO)C(=O)N1CCC[C@H]1C(N)=O [Peptide 9] (H-CSFACYWNLLSP-NH2; linker 1-5 via C6F4(1,4-diyl))"

# Same assay, conditions: supplementary binding validation; averaged over three measurements; ~30-100 nM SUMO-25-109MDM2 as given per peptide; read-out: Averaged KD, competition BLI assay
row,Kd [nM],Compound
1,628 ± 89,CC(C)C[C@H](NC(=O)[C@H](CC(N)=O)NC(=O)[C@H](Cc1c[nH]c2ccccc12)NC(=O)[C@H](C)NC(=O)[C@H](CCC(=O)O)NC(=O)[C@H](C)NC(=O)[C@H](Cc1ccccc1)NC(=O)[C@H](C)NC(=O)[C@@H](N)[C@@H](C)O)C(=O)N[C@@H](CC(C)C)C(=O)N[C@@H](CO)C(=O)N1CCC[C@H]1C(N)=O [Peptide 2] (H-TAFAEAWNLLSP-NH2)
2,10 ± 2.3,CC(C)C[C@H](NC(=O)[C@H](CC(N)=O)NC(=O)[C@H](Cc1c[nH]c2ccccc12)NC(=O)[C@H](Cc1ccc(O)cc1)NC(=O)[C@H](C)NC(=O)[C@H](C)NC(=O)[C@H](Cc1ccccc1)NC(=O)[C@H](CO)NC(=O)[C@H](C)N)C(=O)N[C@@H](CC(C)C)C(=O)N[C@@H](CO)C(=O)N1CCC[C@H]1C(N)=O [Peptide 1] (H-ASFAAYWNLLSP-NH2)
3,3 ± 1.3,"CC(C)C[C@@H]1NC(=O)[C@H](CC(C)C)NC(=O)[C@@H](NC(=O)[C@H](Cc2c[nH]c3ccccc23)NC(=O)[C@H](Cc2ccc(O)cc2)NC(=O)[C@H](CCC(=O)O)NC(=O)[C@H](C)NC(=O)[C@H](Cc2ccccc2)NC(=O)[C@H](CO)NC(=O)[C@@H](N)[C@@H](C)O)CSc2c(F)c(F)c(c(F)c2F)SC[C@@H](C(N)=O)NC(=O)[C@H](CO)NC1=O [Peptide 16] (H-TSFAEYWCLLSC-NH2; linker 8-12 via C6F4(1,4-diyl))"
4,1150 ± 209,"CC(C)C[C@@H]1NC(=O)[C@H](CC(N)=O)NC(=O)[C@@H](NC(=O)[C@H](Cc2ccc(O)cc2)NC(=O)[C@H](CCC(=O)O)NC(=O)[C@H](C)NC(=O)[C@H](Cc2ccccc2)NC(=O)[C@H](CO)NC(=O)[C@@H](N)[C@@H](C)O)CSc2c(F)c(F)c(c(F)c2F)SC[C@@H](C(=O)N2CCC[C@H]2C(N)=O)NC(=O)[C@H](CC(C)C)NC1=O [Peptide 15] (H-TSFAEYCNLLCP-NH2; linker 7-11 via C6F4(1,4-diyl))"
5,26 ± 5,"CC(C)C[C@H](NC(=O)[C@@H]1CSc2c(F)c(F)c(c(F)c2F)SC[C@H](NC(=O)[C@H](Cc2ccccc2)NC(=O)[C@H](CO)NC(=O)[C@@H](N)[C@@H](C)O)C(=O)N[C@@H](CCC(=O)O)C(=O)N[C@@H](Cc2ccc(O)cc2)C(=O)N[C@@H](Cc2c[nH]c3ccccc23)C(=O)N1)C(=O)N[C@@H](CC(C)C)C(=O)N[C@@H](CO)C(=O)N1CCC[C@H]1C(N)=O [Peptide 12] (H-TSFCEYWCLLSP-NH2; linker 4-8 via C6F4(1,4-diyl))"
6,1220 ± 231,CC(C)C[C@H](NC(=O)[C@H](CC(C)C)NC(=O)[C@H](CC(N)=O)NC(=O)[C@H](C)NC(=O)[C@H](Cc1ccc(O)cc1)NC(=O)[C@H](CCC(=O)O)NC(=O)[C@H](C)NC(=O)[C@H](Cc1ccccc1)NC(=O)[C@H](CO)NC(=O)[C@@H](N)[C@@H](C)O)C(=O)N[C@@H](C)C(=O)N1CCC[C@H]1C(N)=O [Peptide 7] (H-TSFAEYANLLAP-NH2)
7,1.6 ± 1.3,"CC(C)C[C@H](NC(=O)[C@@H]1CSc2c(F)c(F)c(c(F)c2F)SC[C@H](NC(=O)[C@H](C)NC(=O)[C@H](Cc2ccccc2)NC(=O)[C@H](CO)NC(=O)[C@@H](N)[C@@H](C)O)C(=O)N[C@@H](Cc2ccc(O)cc2)C(=O)N[C@@H](Cc2c[nH]c3ccccc23)C(=O)N[C@@H](C)C(=O)N1)C(=O)N[C@@H](CO)C(=O)N[C@@H](C)C(N)=O [Peptide 37] (H-TSFACYWACLSA-NH2; linker 5-9 via C6F4(1,4-diyl))"
8,431 ± 46,"CC(C)C[C@H](NC(=O)[C@H](CC(N)=O)NC(=O)[C@H](Cc1c[nH]c2ccccc12)NC(=O)[C@@H]1CSc2c(F)c(F)c(c(F)c2F)SC[C@H](NC(=O)[C@@H](N)[C@@H](C)O)C(=O)N[C@@H](Cc2ccccc2)C(=O)N[C@@H](C)C(=O)N[C@@H](CCC(=O)O)C(=O)N1)C(=O)N[C@@H](CC(C)C)C(=O)N[C@@H](CO)C(=O)N1CCC[C@H]1C(N)=O [Peptide 10] (H-TCFAECWNLLSP-NH2; linker 2-6 via C6F4(1,4-diyl))"
9,2020 ± 514,"CC(C)C[C@@H]1NC(=O)[C@H](CC(N)=O)NC(=O)[C@H](Cc2c[nH]c3ccccc23)NC(=O)[C@@H](NC(=O)[C@H](CCC(=O)O)NC(=O)[C@H](C)NC(=O)[C@H](Cc2ccccc2)NC(=O)[C@H](CO)NC(=O)[C@@H](N)[C@@H](C)O)CSc2c(F)c(F)c(c(F)c2F)SC[C@@H](C(=O)N[C@@H](CO)C(=O)N2CCC[C@H]2C(N)=O)NC1=O [Peptide 14] (H-TSFAECWNLCSP-NH2; linker 6-10 via C6F4(1,4-diyl))"
10,1590 ± 315,"CC(C)C[C@H](NC(=O)[C@H](CC(N)=O)NC(=O)[C@@H]1CSc2c(F)c(F)c(c(F)c2F)SC[C@H](NC(=O)[C@H](CO)NC(=O)[C@@H](N)[C@@H](C)O)C(=O)N[C@@H](C)C(=O)N[C@@H](CCC(=O)O)C(=O)N[C@@H](Cc2ccc(O)cc2)C(=O)N1)C(=O)N[C@@H](CC(C)C)C(=O)N[C@@H](CO)C(=O)N1CCC[C@H]1C(N)=O [Peptide 11] (H-TSCAEYCNLLSP-NH2; linker 3-7 via C6F4(1,4-diyl))"
11,4910 ± 713,CC(C)C[C@H](NC(=O)[C@H](CC(N)=O)NC(=O)[C@H](C)NC(=O)[C@H](Cc1ccc(O)cc1)NC(=O)[C@H](CCC(=O)O)NC(=O)[C@H](C)NC(=O)[C@H](C)NC(=O)[C@H](CO)NC(=O)[C@@H](N)[C@@H](C)O)C(=O)N[C@@H](CC(C)C)C(=O)N[C@@H](CO)C(=O)N1CCC[C@H]1C(N)=O [Peptide 3] (H-TSAAEYANLLSP-NH2)
12,0.2 ± 0.1,"CC(C)C[C@@H]1NC(=O)[C@H](C)NC(=O)[C@@H](NC(=O)[C@H](Cc2c[nH]c3ccccc23)NC(=O)[C@H](Cc2ccc(O)cc2)NC(=O)[C@H](CCC(=O)O)NC(=O)[C@H](C)NC(=O)[C@H](Cc2ccccc2)NC(=O)[C@H](CO)NC(=O)[C@@H](N)[C@@H](C)O)CSc2c(F)c(F)c(c(F)c2F)SC[C@@H](C(N)=O)NC(=O)[C@H](CO)NC1=O [Peptide 40] (H-TSFAEYWCALSC-NH2; linker 8-12 via C6F4(1,4-diyl))"
13,30 ± 3.8,CC(C)C[C@H](NC(=O)[C@H](C)NC(=O)[C@H](CC(N)=O)NC(=O)[C@H](Cc1c[nH]c2ccccc12)NC(=O)[C@H](Cc1ccc(O)cc1)NC(=O)[C@H](C)NC(=O)[C@H](C)NC(=O)[C@H](Cc1ccccc1)NC(=O)[C@H](CO)NC(=O)[C@@H](N)[C@@H](C)O)C(=O)N[C@@H](CO)C(=O)N1CCC[C@H]1C(N)=O [Peptide 5] (H-TSFAAYWNALSP-NH2)
14,316 ± 27,"CC(C)C[C@H](NC(=O)[C@H](C)NC(=O)[C@@H]1CSc2c(F)c(F)c(c(F)c2F)SC[C@H](NC(=O)[C@H](Cc2ccccc2)NC(=O)[C@H](C)NC(=O)[C@H](C)N)C(=O)N[C@@H](CCC(=O)O)C(=O)N[C@@H](Cc2ccc(O)cc2)C(=O)N[C@@H](Cc2c[nH]c3ccccc23)C(=O)N1)C(=O)N[C@@H](CO)C(=O)N1CCC[C@H]1C(N)=O [Peptide 35] (H-AAFCEYWCALSP-NH2; linker 4-8 via C6F4(1,4-diyl))"
15,2140 ± 390,CC(C)C[C@H](NC(=O)[C@H](CC(N)=O)NC(=O)[C@H](Cc1c[nH]c2ccccc12)NC(=O)[C@H](C)NC(=O)[C@H](CCC(=O)O)NC(=O)[C@H](C)NC(=O)[C@H](Cc1ccccc1)NC(=O)[C@H](CO)NC(=O)[C@@H](N)[C@@H](C)O)C(=O)N[C@@H](C)C(=O)N[C@@H](CO)C(=O)N1CCC[C@H]1C(N)=O [Peptide 6] (H-TSFAEAWNLASP-NH2)

# Target: MDM2
# Experiment: not given
# Conditions: KD of single alanine mutant relative to PMI; ref 3 of supplement (Li et al., J. Mol. Biol. 2010); cited from earlier work
row,Compound,KD ratio
1,TSFAEYWNLLSA [Peptide P12A],0.7
2,TSFAEYWNALSP [Peptide L9A],0.8
3,TSFAAYWNLLSP [Peptide E5A],6.7
4,TSAAEYWNLLSP [Peptide F3A],11750
5,TSFAEYWNLASP [Peptide L10A],227
6,TSFAEYWNLLAP [Peptide S11A],1.2
7,TAFAEYWNLLSP [Peptide S2A],8.4
8,TSFAEYANLLSP [Peptide W7A],50720
9,ASFAEYWNLLSP [Peptide T1A],1.9
10,TSFAEAWNLLSP [Peptide Y6A],191
